“Also recorded” adds a separate entry of the source.
Columns and labels:
[1] = tested on: CFPAC-1 (human pancreatic cancer) cell line-derived xenograft; experiment: In vivo tumour inhibition by dual prodrug nanoparticles, CFPAC-1 xenograft; parameters: species or system NOD-SCID gamma mouse (NSG); conditions: twice a week for 4 weeks; NPs IV with 4.5 mg/Kg Gem (dual: + 1 mg/Kg CP) equivalent; Gemcitabine 100 mg/Kg IP
Description: In another study a dual drug chemotherapeutic prodrug nanoparticle was employed to treat a CFPAC-1 (human pancreatic cancer) cell line-derived xenograft in NOD-SCID gamma mouse (NSG) over 28 days. […] The control groups were injected with the commercially available free Gemcitabine at 100 mg/Kg and PBS (vehicle control). Gemcitabine group were administered by intraperitoneal (IP) injection due to high toxicity of IV injection. 24 mice were used in this study, treating 6 mice/group.

[2] = tested on: CFPAC-1 pancreatic cell line; experiment: Cell proliferation and cytotoxicity assay (MTS or crystal violet); assay type: cell-based, human; conditions: CFPAC-1, 72 hours; prodrug tested as nanoparticles
Description: (§1) Cell proliferation and cytotoxicity assays were performed in different cell lines by MTS (3-(4,5-dimethylthiazol-2-yl)-5-(3-carboxymethoxyphenyl)-2-(4-sulfophenyl)-2H-tetrazolium) assay. Cells were treated with free drug or prodrug nanoparticles, and in different concentrations in medium supplemented with 10% FBS and incubated for 72 hours.
The cytotoxicity of CP-prodrug nanoparticles made from sole CP-amphiphiles was evaluated in comparison to native CP in a CFPAC-1 pancreatic cell line.
(§2) The cell lines were exposed to media with varying concentrations of the treatments (100-0.2 μM) and incubated for 72 hours. Cell viability was determined using the MTS assay or crystal violate assay and was conducted in triplicate to derive the IC50 values.

CACO2 cell line = experiment: as above; assay type: cell-based; conditions: CACO2, 72 hours; prodrug tested as nanoparticles
Description: as §1, §2

MCF7 cell line = experiment: as above; assay type: cell-based; conditions: MCF7, 72 hours; prodrug tested as nanoparticles
Description: as §1, §2

[3] = Reduction kinetics of Pt (IV) prodrug nanoparticles with ascorbic acid (LC-MS); assay type: in vitro ADME; conditions: prodrug nanoparticles 0.1 mM, 37° C.
Description: The reducing agent was applied at concentrations corresponding to those found in the living cells' environment, e.g. 1 mM ascorbic acid or 2 mM glutathione (GSH).
Dispersed nanoparticles of Pt (IV) prodrug amphiphiles were mixed with GSH, ascorbic acid or their combination. The ratios of the reducing agents to platinum prodrugs were 10:1 or 50:1 for ascorbic acid and 20:1 for GSH. The reduction kinetics was analysed by LC-MS via monitoring the peaks related to each prodrug amphiphile. The prodrugs were detected by negative ions optimised for each platinum amphiphile. The reduction kinetics was plotted as the percentage of the area under the peak of Pt (IV)-prodrug compared to the peak before the addition of the reducing agent against the time of incubation. At each time point 10 μl of a sample withdrawn from the reaction solution was injected directly into a Phenomenex C8 150 mm×2 mm 5 μm Luna column (Phenomenex, Australia). A 100% Methanol solution was used as the mobile phase with a flow rate of 0.5 ml/min for 8 minutes. The sample after the column separation was eluted to the ESI source. […] The samples were well maintained at a temperature of 37° C. during the entire measurement by incubation in the temperature-controlled auto-sampler. Data was acquired and processed with Xcalibur Quan chromatography software.

[4] = Mesophase behaviour by polarized optical microscopy (POM); assay type: physicochemical; conditions: 25° C. and 37° C.
Description: Polarized Optical Microscopy (POM): Samples used for Polarized Optical Microscopy (POM) were prepared by placing a small amount of prodrug amphiphile on a microscope slide and covered with a cover slip. Water was placed on the edges of the cover slip and allowed to flow into the sample by capillary action. The microscope slide was placed in a Linkam PE94 hot stage (Linkam Scientific Instruments Ltd. Surrey, England) and heated at 3° C./min between room temperature and 50° C. […] Images were captured with a Nikon DS-Ri-1 camera. All images were taken at 100× magnification.
The formation of lyotropic mesophases is based on the interaction of the prodrug amphiphile with water. Polarized optical microscopy was used to study the liquid crystalline or crystalline structures of the prodrug amphiphiles. This method was used as a preliminary and qualitative investigation to observe the morphological changes of the amphiphile as well as to predict the structural changes of the mesophases which may form upon hydration with water. For each prodrug amphiphile, a small amount of the neat and dry sample was placed on a microscope slide and covered with a cover slip. Water was placed on the edges of the cover slip to allow to flow into the sample by capillary action. Images were captured at 25° C. before and after the addition of water and at 37° C. after exposure to water. 37° C. was selected due to its physiological relevance. […]

[5] = tested on: MIAPACA-2 (human pancreatic cancer) cell-derived xenograft; experiment: In vivo tumour inhibition, resistant MIAPACA-2 xenograft (tumour volume, body weight, kidney histopathology); parameters: species or system NOD-SCID mice; conditions: for histopathology of the kidney: 0.75 mg/Kg CP or equivalent, H & E sections
From the text: Subcutaneous xenografts were established by implanting 2-3×10^6 cells from cultures of CFPAC-1 or MIAPACA-2 human pancreatic cancer cell lines. Six-week-old male Nonbobese diabetic/severe combined immunodeficient (NOD/SCID) or nonobese diabetic/severe combined immunodeficient-gamma (NSG) mice were obtained from Animal Research Centre, Perth, Australia. These mice were acclimatised for one week in the Kearns Facility, Kolling Institute of Medical Research, the University of Sydney, following standard animal regulation and strict health controls allowing transfer between institutions. Animal care and housing was undertaken in accordance with institutional guidelines of Northern Sydney Local Health District (NSLHD) Animal Care & Ethics Committee (ACEC) (Protocol number 1011-015A).
Tumour growth was measured at least twice a week. When tumours were ˜40-100 mm3, the treatments were administered two times weekly by intraperitoneal injection (IP.) for control and gemcitabine alone groups, and intravenously (IV.) injection for nanoparticles groups for 4 weeks. At 30 days each experiment organs and tumours were harvested for analysis.
Tissue samples were fixed in 10% phosphate buffered formalin and embedded in paraffin. Formalin-fixed, paraffin embedded sections were cut 4-μm thick sections and stained with Mayer's hematoxylin and eosin (H & E). For immunohistochemistry, sections were incubated with the specific antibodies then using the Dako Envision+System-HRP labelled polymer detection kit (DaKo) according to manufacturers' protocol and counterstained with Mayer's hematoxylin and Scott's bluing solution. After mounting, sections were observed under a light microscope (ECLIPSE 80i; Nikon,
The evaluation of anticancer drugs in vivo is essential as it provides insight into the expected clinical outcomes of a drug. An in vivo evaluation of the anti-cancer efficacy of the CP-prodrug nanoparticles vs. CP was conducted on a resistant MIAPACA-2 (human pancreatic cancer) cell-derived xenograft in NOD-SCID mice. Five mice per group were used in the study and all treatments were administered via an IV injection twice a week for four weeks. The amount of CP administered in the free CP group was 0.75 mg/kg, where the nanoparticles made from CP-bis (suc-PEG3-Oleoyl) and stabilised with 30% PEG4K-oleoyl (FIG. 7b), contained 0.75 mg/kg of equivalent CP.

[6] = 0.75 mg/kg CP or equivalent, IV twice a week for four weeks

Compound	tumour growth inhibition (in words) [1]	IC50 [2] [µM]	IC50 (CACO2 cell line) [µM]	IC50 (MCF7 cell line) [µM]	reduction rate at 5 mM versus 1 mM ascorbic acid [3]	POM observation on exposure to water [4]	histopathology of the kidney ([5]; listed as CP)	histopathology of the kidney ([5]; listed as CP drug)	average increase of body weight at the conclusion of the experiment [5, 6] [%]	tumour growth inhibition (in words) [5, 6]
Nc1ccn([C@@H]2O[C@H](CO)[C@@H](O)C2(F)F)c(=O)n1 [Gemcitabine]	significantly reduced the tumour volume; also recorded: reduced the size of tumour significantly better than other groups	–	–	–	–	–	–	–	–	–
cis,cis,trans-(PtC12 (succinoyl-triethyleneglycoyl-oleoyl)2) [CP-bis(suc-PEG3-oleoyl)]	–	5.1	49	28.2	slightly greater than 1 mM up to 4 h, however longer incubation time up to 7 h showed similar reduced prodrug at both concentrations	lamellar and emulsified bands (L2 or L3) mesophases	–	–	–	–
N.N.[Cl][Pt][Cl] [Cisplatin, Cis-diamminedichloroplatinum (II)]	–	3.6	–	11.5	–	–	sever pathological changes in the form of acute tubular necrosis, haemorrhage into many of the glomeruli and swelling of the capillaries	acute tubular necrosis	14	growth inhibition to control PBS group, but less than group treated with nanoparticle
